The text below walks through data of patent US4731381A, “Method of treating a person for sickle cell anemia” (Merck & Co., Inc., priority 1986, dated 1988).

For data set [1], the target named is sickle hemoglobin (HbS) (Homo sapiens, UniProt P68871+P69905, E7V). Put plainly: solubility assay (Csat assay) of sickle hemoglobin. The format is biochemical. The note with it: for activation at 3000 µM: 3 mM; for activation at 3000 µM / activation at 5000 µM / activation at 7000 µM / activation at 9000 µM: read-out: % increase in Solubility of HbS; for activation at 7000 µM: 7 mM; for activation at 9000 µM: 9 mM. From the text:
One major assay for evaluating antisickling agents involves measuring their effect on increasing the concentration at which sickle hemoglobin forms a gel. This is called the solubility or Csat assay.
The solubility assay (Csat assay) measures the ability of a compound to increase solubility of sickle hemoglobin (HbS). […] The higher the ratio, the higher the activity of the compound.
In order to confirm the effectiveness of these compounds in reducing the effect of sickle cell anemia, tests were performed. The materials were tested according to the assay (Csat) developed by Hofrichter et al. (J. Hofrichter, P. D. Ross and W. A. Eaton, Proc. Natl. Acad. Sci., U.S.A. 73, 30-35, 1976). This assay involves deoxygenation of concentrated sickle hemoglobin with dithionite in the presence of different concentrations of the drugs being tested. Samples are then sealed in quartz epr tubes under anaerobic conditions and spun at about 150,000 g for about 21/2 hours at about 35° C. in an ultracentrifuge. This procedure pellets the polymerized HbS (sickle hemoglobin) to the bottom of the tubes and the supernatant (soluble HbS) is measured in the laboratory as the cyanmethemoglobulin derivative. […] Activity is reported as a ratio of the HbS solubility with the particular drug to HbS solubility with no drug, i.e. control. The higher the ratio the greater degree of activity of the drug. The numbers in parenthesis are the percent increase in solubility of HbS; again, the higher the number, the greater the activity. The results of representative compounds from the Examples are shown in Table I as typical of the compounds of the invention.

Data set [2] relates to erythrocyte membranes. Put plainly: tests of transport across erythrocyte membranes. The format is in vitro ADME.
Data set [3] has as its system HbS. Briefly: chromatographic separation, covalent binding between HbS and the agent.

Each structure is given as a SMILES string. Counter-ions that a name gives are not always drawn.

With `C=C(CC)C(=O)c1ccc(OCCC(=O)O)c(Cl)c1Cl` [Example 1, 3-[2,3-dichloro-4-(2-methylenebutyryl)phenoxy]propionic acid], in data set [1], the activation at 3000 µM worked out at 26%, the activation at 7000 µM amounted to 43% and the activation at 9000 µM came to 69%. Further, the activation at 5000 µM in data set [1] (5 mM) was found to be 33%.
For `C=C(CC)C(=O)c1ccc(OCCCC(=O)O)c(Cl)c1Cl` [Example 2, 4-[2,3-dichloro-4-(2-methylenebutyryl)phenoxy]butyric acid], in that order: 22%, 37%, 46% and 27%.
For `C=C(CCC)C(=O)c1ccc(OCCCC(=O)O)c(Cl)c1Cl` [Example 3, 4-[2,3-dichloro-4-(2-methylenevaleryl)phenoxy]butyric acid], in that order: 18%, 46%, 51% and 37%.
For `C=C(CC)C(=O)c1ccc(OCCCCC(=O)O)c(Cl)c1Cl` [Example 4, 5-[2,3-dichloro-4-(2-methylenebutyryl)phenoxy]valeric acid] the same measures were 21%, 52%, 80% and 34%.
In the case of `C=C(CC)C(=O)c1ccc(OCCCCCC(=O)O)c(Cl)c1Cl` [Example 5, 6-[2,3-dichloro-4-(2-methylenebutyryl)phenoxy]hexanoic acid], in data set [1], the activation at 3000 µM was determined as 13%, the activation at 7000 µM amounted to 26% and the activation at 9000 µM was determined as 35%. In addition, the activation at 5000 µM in data set [1] (5 mM) worked out at 18%.
For `C=C(CC)C(=O)c1ccc(OC2(C(=O)O)CCC2)c(Cl)c1Cl` [Example 6, 1-[2,3-dichloro-4-(2-methylenebutyryl)phenoxy]cyclobutane-1-carboxylic acid], in that order: 19%, 34%, 48% and 30%.
For `C=C(CCC)C(=O)c1ccc(OC2(C(=O)O)CCC2)c(Cl)c1Cl` [Example 7, 1-[2,3-dichloro-4-(2-methylenevaleryl)phenoxy]cyclobutane-1-carboxylic acid], in that order: 14%, 26%, 39% and 30%.
For `C=C(CC)C(=O)c1ccc(OC(C)(C)C(=O)O)c(Cl)c1Cl` [Example 8, 2-[2,3-dichloro-4-(2-methylenebutyryl)phenoxy]-2-methylpropionic acid] the same measures were 11%, 41%, 53% and 21%.
`C=C(CC)C(=O)c1ccc(OCCCC(=O)O)c(Cl)c1Cl` [sodium salt of 4-[2,3-dichloro-4-(2-methylenebutyryl)phenoxy]butyric acid]: the “solubility ratio (Csat assay) compared with other antisickling agents, in words” value in data set [1] (5 mM, sodium salt) is “higher solubility ratio than other antisickling agents, such as, dichlorobenzyloxyacetic and p-bromobenzyloxyacetic acids”. For the same compound, the “ability to cross the red blood cell membrane, in words” value in data set [2] was “cross the red blood cell membrane and react with hemoglobin”. Also, the “covalent binding between HbS and the therapeutic agent, in words” value in data set [3] is “tight covalent binding between the HbS and the therapeutic agent had occurred”.
